Assays:
[1] = test system: barnyard grass; assay: Test Example 3: herbicidal effect by foliage application, Wagner pot (Table 18, symbol H); format: in vivo, barnyard grass (Echinochloa crus-galli); conditions: for herbicidal effect on barnyard grass (H): 320 g/ha
How it was run: (§1)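 Plants were sown in alluvial soil held under 0.1–0.5 cm standing water and grown 14 days in a greenhouse at 25–30 °C. An emulsifiable formulation, water-diluted to the set dose, was then sprayed onto the foliage, and effects were scored three weeks later using previously defined criteria.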

[2] = test system: Chinese sprangletop; assay: Test Example 3: herbicidal effect by foliage application, Wagner pot (Table 18, symbol D); format: in vivo, chinese sprangletop (Leptochloa chinensis); conditions: for herbicidal effect on Chinese sprangletop (D): 320 g/ha
How it was run: as §1

[3] = test system: rice flat sedge; assay: Test Example 3: herbicidal effect by foliage application, Wagner pot (Table 18, symbol E); format: in vivo, rice flat sedge (Cyperus iria); conditions: for herbicidal effect on rice flat sedge (E): 320 g/ha
How it was run: as §1

[4] = test system: southern crabgrass; assay: Test Example 4: herbicidal effect by soil treatment (Table 19, symbol F); format: in vivo, southern crabgrass (Digitaria ciliaris); conditions: amount of applied herbicide 320 g/ha
How it was run: (§2)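 Step 1: sow seeds in sterilized diluvial soil, cover ~1.5 cm. Step 2: spray diluted emulsion onto soil surface at predetermined rate. Step 3: greenhouse, 25–30° C, three weeks. Step 4: grade effect on each plant by earlier criteria.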

[5] = test system: green foxtail; assay: Test Example 4: herbicidal effect by soil treatment (Table 19, symbol G); format: in vivo, green foxtail (Setaria viridis); conditions: amount of applied herbicide 320 g/ha
How it was run: as §2

[6] = test system: barnyard grass; assay: Test Example 4: herbicidal effect by soil treatment (Table 19, symbol H); format: in vivo, barnyard grass (Echinochloa crus-galli); conditions: amount of applied herbicide 320 g/ha
Text: (§3) [Test Example 4] Herbicidal Effect Test by Soil Treatment
(§4) Sterilized diluvial soil was placed in a plastic box having a length of 21 cm, a width of 13 cm, and a depth of 7 cm. The seeds of each of southern crabgrass, green foxtail, barnyard grass, wild oat, blackgrass, Italian ryegrass, windgrass, velvetleaf, redroot pigweed, lambsquarters, chickweed, false cleavers, persian speedwell, corn, soybean, rice, wheat, beet, and rapeseed were sowed in a spot-like manner and covered with the soil having a thickness of about 1.5 cm. Subsequently, the emulsion agent of the compound of the present invention prepared according to Formulation Example 2 was diluted with water so as to achieve a predetermined herbicide amount, and the diluted emulsion agent was uniformly applied to the surface of the soil with a small-sized spray. The plastic box was placed in a greenhouse at 25° C. to 30° C. for growth of the plants. Three weeks after the herbicide application, the effect of the herbicide on each plant was evaluated according to the criteria of Test Example 1.

[7] = test system: velvetleaf; assay: Test Example 4: herbicidal effect by soil treatment (Table 19, symbol M); format: in vivo, velvetleaf (Abutilon theophrasti); conditions: amount of applied herbicide 320 g/ha
How it was run: as §2

[8] = test system: redroot pigweed; assay: Test Example 4: herbicidal effect by soil treatment (Table 19, symbol N); format: in vivo, redroot pigweed (Amaranthus retroflexus); conditions: amount of applied herbicide 320 g/ha
Text: as §3, §4

[9] = test system: lambsquarters; assay: Test Example 4: herbicidal effect by soil treatment (Table 19, symbol O); format: in vivo, lambsquarters (Chenopodium album); conditions: amount of applied herbicide 320 g/ha
How it was run: as §2

[10] = test system: southern crabgrass; assay: Test Example 5: herbicidal effect by foliage application, plastic box (Table 20, symbol F); format: in vivo, southern crabgrass (Digitaria ciliaris)
How it was run: (§5)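 Foliar spray test: emulsion formulation diluted in water to a set application rate, sprayed onto 14-day-old plants raised in diluvial soil at 25° C to 30° C under glass. Both herbicidal effect and crop effect rated visually three weeks later.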

[11] = test system: green foxtail; assay: Test Example 5: herbicidal effect by foliage application, plastic box (Table 20, symbol G); format: in vivo, green foxtail (Setaria viridis)
How it was run: as §5

[12] = test system: barnyard grass; assay: Test Example 5: herbicidal effect by foliage application, plastic box (Table 20, symbol H); format: in vivo, barnyard grass (Echinochloa crus-galli)
How it was run: as §5

[13] = test system: velvetleaf; assay: Test Example 5: herbicidal effect by foliage application, plastic box (Table 20, symbol M); format: in vivo, velvetleaf (Abutilon theophrasti)
How it was run: as §5

[14] = test system: redroot pigweed; assay: Test Example 5: herbicidal effect by foliage application, plastic box (Table 20, symbol N); format: in vivo, redroot pigweed (Amaranthus retroflexus)
Text: (§6) [Test Example 5] Herbicidal Effect Test by Foliage Application
as §4, with “Thereafter, the plants were grown in a greenhouse at 25° C. to 30° C. After 14-day growth of the plants,” for “Subsequently,”, “a foliage part” for “the surface of the soil”, “spray.” for “spray. The plastic box was placed in a greenhouse at 25° C. to 30° C. for growth of the plants.”

[15] = test system: lambsquarters; assay: Test Example 5: herbicidal effect by foliage application, plastic box (Table 20, symbol O); format: in vivo, lambsquarters (Chenopodium album)
How it was run: as §5

[16] = test system: wild oat; assay: Test Example 5: herbicidal effect by foliage application, plastic box (Table 20, symbol I); format: in vivo, wild oat (Avena fatua); conditions: foliage application after 14-day growth, evaluated three weeks after application
How it was run: as §5

[17] = test system: Italian ryegrass; assay: Test Example 5: herbicidal effect by foliage application, plastic box (Table 20, symbol K); format: in vivo, Italian ryegrass (Lolium multiflorum); conditions: foliage application after 14-day growth, evaluated three weeks after application
How it was run: as §5

[18] = test system: windgrass; assay: Test Example 5: herbicidal effect by foliage application, plastic box (Table 20, symbol L); format: in vivo, windgrass (Apera spica-venti); conditions: foliage application after 14-day growth, evaluated three weeks after application
How it was run: as §5

[19] = test system: chickweed; assay: Test Example 5: herbicidal effect by foliage application, plastic box (Table 20, symbol P); format: in vivo, common chickweed (Stellaria media); conditions: foliage application after 14-day growth, evaluated three weeks after application
Text: as §6
as §4, with “Thereafter, the plants were grown in a greenhouse at 25° C. to 30° C. After 14-day growth of the plants,” for “Subsequently,”, “a foliage part” for “the surface of the soil”, “spray.” for “spray. The plastic box was placed in a greenhouse at 25° C. to 30° C. for growth of the plants.”

[20] = test system: persian speedwell; assay: Test Example 5: herbicidal effect by foliage application, plastic box (Table 20, symbol R); format: in vivo, Persian speedwell (Veronica persica); conditions: 320 g/ha, foliage application after 14-day growth, evaluated three weeks after application
How it was run: as §5

[21] = test system: blackgrass; assay: Test Example 5: herbicidal effect by foliage application, plastic box (Table 20, symbol J); format: in vivo, blackgrass (Alopecurus myosuroides); conditions: amount of applied herbicide 320 g/ha; foliage application after 14-day growth; evaluated three weeks after application
How it was run: as §5

[22] = amount of applied herbicide 320 g/ha
[23] = foliage application, 320 g/ha, three weeks after application
[24] = 320 g/ha, foliage application after 14-day growth, evaluated three weeks after application
[25] = amount of applied herbicide 320 g/ha, foliage application after 14-day growth, evaluated three weeks after application

Cc1nn(C)c(=O)c(-c2c(-c3ccsc3)sc3ccc(F)cc23)c1O [2-463]
herbicidal effect on H: barnyard grass [1, 22]: 3 (Herbicidal rate of 40% or more and less than 70%) | herbicidal effect on D: Chinese sprangletop [2, 22]: 0 (Herbicidal rate of 5% or less (almost no effect)) | herbicidal effect on E: rice flat sedge [3, 22]: 0 (Herbicidal rate of 5% or less (almost no effect)) | herbicidal effect, F: southern crabgrass [4]: 2 (Herbicidal rate of 20% or more and less than 40%) | herbicidal effect, G: green foxtail [5]: 0 (Herbicidal rate of 5% or less (almost no effect)) | herbicidal effect, H: barnyard grass [6]: 3 (Herbicidal rate of 40% or more and less than 70%) | herbicidal effect, M: velvetleaf [7]: 3 (Herbicidal rate of 40% or more and less than 70%) | herbicidal effect, N: redroot pigweed [8]: 4 (Herbicidal rate of 70% or more and less than 90%) | herbicidal effect, O: lambsquarters [9]: 3 (Herbicidal rate of 40% or more and less than 70%) | F: southern crabgrass, herbicidal effect grade [10, 23]: 4 (Herbicidal rate of 70% or more and less than 90%) | G: green foxtail, herbicidal effect grade [11, 23]: 3 (Herbicidal rate of 40% or more and less than 70%) | H: barnyard grass, herbicidal effect grade [12, 23]: 3 (Herbicidal rate of 40% or more and less than 70%) | M: velvetleaf, herbicidal effect grade [13, 23]: 5 (Herbicidal rate of 90% or more (almost completely withered)) | N: redroot pigweed, herbicidal effect grade [14, 23]: 5 (Herbicidal rate of 90% or more (almost completely withered)) | O: lambsquarters, herbicidal effect grade [15, 23]: 3 (Herbicidal rate of 40% or more and less than 70%)

CCCC(=O)Oc1c(C)nn(C)c(=O)c1-c1c(-c2ccc(OC)c(OC)c2)sc2c(F)cccc12 [4-014]
herbicidal effect on barnyard grass (H) [1]: 3 (Herbicidal rate of 40% or more and less than 70%) | herbicidal effect on Chinese sprangletop (D) [2]: 0 (Herbicidal rate of 5% or less (almost no effect)) | herbicidal effect on rice flat sedge (E) [3]: 0 (Herbicidal rate of 5% or less (almost no effect)) | herbicidal effect on F: southern crabgrass (evaluation grade 0-5) [10, 24]: 0 (Herbicidal rate of 5% or less (almost no effect)) | herbicidal effect on G: green foxtail (evaluation grade 0-5) [11, 24]: 4 (Herbicidal rate of 70% or more and less than 90%) | herbicidal effect on H: barnyard grass (evaluation grade 0-5) [12, 24]: 2 (Herbicidal rate of 20% or more and less than 40%) | herbicidal effect on I: wild oat (evaluation grade 0-5) ([16]; 320 g/ha): 0 (Herbicidal rate of 5% or less (almost no effect)) | herbicidal effect on K: Italian ryegrass (evaluation grade 0-5) ([17]; 320 g/ha): 1 (Herbicidal rate of 5% or more and less than 20%) | herbicidal effect on L: windgrass (evaluation grade 0-5) ([18]; 320 g/ha): 0 (Herbicidal rate of 5% or less (almost no effect)) | herbicidal effect on M: velvetleaf (evaluation grade 0-5) [13, 24]: 3 (Herbicidal rate of 40% or more and less than 70%) | herbicidal effect on N: redroot pigweed (evaluation grade 0-5) [14, 24]: 1 (Herbicidal rate of 5% or more and less than 20%) | herbicidal effect on O: lambsquarters (evaluation grade 0-5) [15, 24]: 0 (Herbicidal rate of 5% or less (almost no effect)) | herbicidal effect on P: chickweed (evaluation grade 0-5) ([19]; 320 g/ha): 5 (Herbicidal rate of 90% or more (almost completely withered)) | herbicidal effect on R: persian speedwell (evaluation grade 0-5) [20]: 3 (Herbicidal rate of 40% or more and less than 70%)

Cc1nn(C)c(=O)c(-c2c(-c3cccc(C(F)(F)F)c3)sc3c(Cl)cccc23)c1O [4-072]
herbicidal effect on barnyard grass (H) [1]: 3 (Herbicidal rate of 40% or more and less than 70%) | herbicidal effect on Chinese sprangletop (D) [2]: 3 (Herbicidal rate of 40% or more and less than 70%) | herbicidal effect on rice flat sedge (E) [3]: 4 (Herbicidal rate of 70% or more and less than 90%) | Herbicidal effect by foliage application, F: southern crabgrass [10, 25]: 4 (Herbicidal rate of 70% or more and less than 90%) | Herbicidal effect by foliage application, G: green foxtail [11, 25]: 3 (Herbicidal rate of 40% or more and less than 70%) | Herbicidal effect by foliage application, H: barnyard grass [12, 25]: 1 (Herbicidal rate of 5% or more and less than 20%) | Herbicidal effect by foliage application, I: wild oat [16, 22]: 0 (Herbicidal rate of 5% or less (almost no effect)) | Herbicidal effect by foliage application, J: blackgrass [21]: 0 (Herbicidal rate of 5% or less (almost no effect)) | Herbicidal effect by foliage application, K: Italian ryegrass [17, 22]: 1 (Herbicidal rate of 5% or more and less than 20%) | Herbicidal effect by foliage application, L: windgrass [18, 22]: 0 (Herbicidal rate of 5% or less (almost no effect)) | Herbicidal effect by foliage application, M: velvetleaf [13, 25]: 3 (Herbicidal rate of 40% or more and less than 70%) | Herbicidal effect by foliage application, N: redroot pigweed [14, 25]: 5 (Herbicidal rate of 90% or more (almost completely withered)) | Herbicidal effect by foliage application, O: lambsquarters [15, 25]: 2 (Herbicidal rate of 20% or more and less than 40%) | Herbicidal effect by foliage application, P: chickweed [19, 22]: 5 (Herbicidal rate of 90% or more (almost completely withered))
